Patent US9872495B2, “Peptoid oligomers, pharmaceutical compositions and methods of using the same” (priority 2009, dated 2018)
≈ marks a conversion by molar mass, not a printed value. Where two headings read alike, the source gives them in different places. Numbered stars: 1 amine (or outer) side, 2 acyl side, 3 side chain; on linkers, the order of the positions; unused ones are H or OH. Square brackets hold non-standard residues; d marks the D form. Peptide text beside a SMILES is read from it. X1 = O=C(CN(CC(c1ccccc1)c1ccccc1)[*:1])[*:2]; Gly(N(CH2)3NH2) = NCCCNCC(=O)O; NhArg = N=C(N)NCCCCNCC(=O)O; N(iPr)Gly = CC(C)NCC(=O)O; Nphe = O=C(O)CNCc1ccccc1; Orn = NCCC[C@H](N)C(=O)O; Nleu = CC(C)CNCC(=O)O; Nlys = NCCCCNCC(=O)O

Legend:
Type in all cases: cell-based
fresh human erythrocytes = assay: Hemolytic activity
Experimental: Typically, toxicity is evaluated by hemolytic concentration50 (HC50), which measures the concentration of antimicrobial agents at which 50% of the erythrocytes in the culture are lysed. Significant hemolysis, as evaluated by HC50, was detectable only for peptide gramicidin S (40 μg/mL). […] In order to test hemolytic activity of peptoid oligomers further, more stringent parameters were used. Instead of HC50, hemolytic concentration10 (HC10) was used to evaluate hemolytic activity of peptoids used in this study. HC10 represents the concentration of antimicrobial agents where 10% of erythrocytes are lysed. HC10 values were detectable for only four peptoid oligomers. […] Antimicrobial activity was tested against the gram-negative strain Escherichia coli ATCC 25922, and […] strains Staphylococcus aureus ATCC 25923, and Bacillus subtilis ATCC 6633, according to the guidelines given in the document […]-A7 of the CLSI (Clinical and Laboratory Standards Institute; Clinical and Laboratory Standards Institute. Methods for Dilution Antimicrobial Susceptibility Tests for Bacteria That Grow Aerobically-Seventh Edition: Approved Standard CLSI document […]-A7. CLSI, Wayne, USA, 2006). This reference is incorporated herein in its entirety. Hemolytic activity was tested against fresh human erythrocytes.

[1] = system: Escherichia coli ATCC 25922; details: ATCC 25922
Experimental: (§1) Antimicrobial activity was tested against the gram-negative strain Escherichia coli ATCC 25922, and […] strains Staphylococcus aureus ATCC 25923, and Bacillus subtilis ATCC 6633, according to the guidelines given in the document […]-A7 of the CLSI (Clinical and Laboratory Standards Institute; Clinical and Laboratory Standards Institute. Methods for Dilution Antimicrobial Susceptibility Tests for Bacteria That Grow Aerobically-Seventh Edition: Approved Standard CLSI document […]-A7. CLSI, Wayne, USA, 2006). This reference is incorporated herein in its entirety. Hemolytic activity was tested against fresh human erythrocytes.

[2] = system: Staphylococcus aureus ATCC 25923; details: ATCC 25923
Experimental: as §1

[3] = system: Bacillus subtilis ATCC 6633; details: ATCC 6633
Experimental: as §1

| SMILES | MIC E. coli [1] [µg/mL] | MIC S. aureus [2] [µg/mL] | MIC B. sub [3] [µg/mL] | HC10 (concentration where 10% hemolysis is observed) (fresh human erythrocytes; red cells of human) [µg/mL] | HC50 (concentration where 50% hemolysis is observed) (fresh human erythrocytes; red cells of human) [µg/mL] | non-hemolytic up to (concentration) (fresh human erythrocytes) [µg/mL] | HC50 (concentration where 50% hemolysis is observed) (fresh human erythrocytes) [µg/mL] |
| --- | --- | --- | --- | --- | --- | --- | --- |
| CC(=O)N(CCCN)CC(=O)N(CC(=O)N(CCCN)CC(=O)N(CC(=O)N(CCCN)CC(=O)N(CC(=O)N(CCCN)CC(=O)N(CC(N)=O)Cc1ccccc1)Cc1ccccc1)Cc1ccccc1)Cc1ccccc1 [Compound 8, Ac(NapNpm)4] (Ac-[Gly(N(CH2)3NH2)][Nphe][Gly(N(CH2)3NH2)][Nphe][Gly(N(CH2)3NH2)][Nphe][Gly(N(CH2)3NH2)][Nphe]-NH2) | 250 (≈ 226 µM) | 250 (≈ 226 µM) | 31.3 (≈ 28.3 µM) | >250 | >250 |  |  |
| CC(=O)N(CCCN)CC(=O)N(CC(=O)N(CCCN)CC(=O)N(CC(=O)N(CCCN)CC(=O)N(CCCN)CC(N)=O)Cc1ccccc1)Cc1ccccc1 [Compound 6, Ac(NapNpm)2Nap2] (Ac-[Gly(N(CH2)3NH2)][Nphe][Gly(N(CH2)3NH2)][Nphe][Gly(N(CH2)3NH2)][Gly(N(CH2)3NH2)]-NH2) | >500 | >500 | >500 | >250 | >250 |  |  |
| CC(=O)N(CCCCNC(=N)N)CC(=O)N(CC(=O)N(CCCCNC(=N)N)CC(=O)N(CC(=O)N(CCCCNC(=N)N)CC(=O)N(CC(N)=O)Cc1ccccc1)Cc1ccccc1)Cc1ccccc1 [Compound 2, Ac(NgbNpm)3] (Ac-[NhArg][Nphe][NhArg][Nphe][NhArg][Nphe]-NH2) | 250 (≈ 247 µM) | 125 (≈ 124 µM) | 62.5 (≈ 61.8 µM) | >250 | >250 |  |  |
| CC(=O)N(CCCN)CC(=O)N(CC(=O)N(CCCN)CC(=O)N(CC(=O)N(CCCN)CC(=O)N(CC(=O)N(CCCN)CC(=O)N(CC(=O)N(CCCN)CC(=O)N(CC(N)=O)Cc1ccccc1)Cc1ccccc1)Cc1ccccc1)Cc1ccccc1)Cc1ccccc1 [Compound 9, Ac(NapNpm)5] (Ac-[Gly(N(CH2)3NH2)][Nphe][Gly(N(CH2)3NH2)][Nphe][Gly(N(CH2)3NH2)][Nphe][Gly(N(CH2)3NH2)][Nphe][Gly(N(CH2)3NH2)][Nphe]-NH2) | 31.3 (≈ 22.9 µM) | 62.5 (≈ 45.8 µM) | 15.6 (≈ 11.4 µM) | >250 | >250 |  |  |
| CC(C)C[C@@H]1NC(=O)[C@H](CCCN)NC(=O)[C@H](C(C)C)NC(=O)[C@@H]2CCCN2C(=O)[C@@H](Cc2ccccc2)NC(=O)[C@H](CC(C)C)NC(=O)[C@H](CCCN)NC(=O)[C@H](C(C)C)NC(=O)[C@@H]2CCCN2C(=O)[C@@H](Cc2ccccc2)NC1=O [Compound 17, Gramicidin S, reference compound] (cyclo(V[Orn]L[dF]PV[Orn]L[dF]P)) | 15.6 (≈ 13.7 µM) | 15.6 (≈ 13.7 µM) | 2 (≈ 1.75 µM) | >15.6 |  |  | 40 |
| CC(C)CN1CC(=O)N(CCCN)CC(=O)N(C(C)C)CC(=O)N2CCC[C@H]2C(=O)N(Cc2ccccc2)CC(=O)N(CC(C)C)CC(=O)N(CCCN)CC(=O)N(C(C)C)CC(=O)N2CCC[C@H]2C(=O)N(Cc2ccccc2)CC1=O [Compound 29, C(NpmNibNapNipPro)2] (cyclo([Nleu][Gly(N(CH2)3NH2)][N(iPr)Gly]P[Nphe][Nleu][Gly(N(CH2)3NH2)][N(iPr)Gly]P[Nphe])) |  |  |  | >250 | >250 |  |  |

Continued, in another order:

| MIC E. coli [1] [µg/mL] | MIC S. aureus [2] [µg/mL] | MIC B. sub [3] [µg/mL] | SMILES | HC10 (concentration where 10% hemolysis is observed) (fresh human erythrocytes; red cells of human) [µg/mL] | HC50 (concentration where 50% hemolysis is observed) (fresh human erythrocytes; red cells of human) [µg/mL] | non-hemolytic up to (concentration) (fresh human erythrocytes) [µg/mL] | HC50 (concentration where 50% hemolysis is observed) (fresh human erythrocytes) [µg/mL] |
| --- | --- | --- | --- | --- | --- | --- | --- |
| 31.3 (≈ 33.5 µM) | 31.3 (≈ 33.5 µM) | 0.5 (≈ 0.535 µM) | NCCCN1CC(=O)N(Cc2ccc3ccccc3c2)CC(=O)N(CCCN)CC(=O)N(Cc2ccc3ccccc3c2)CC(=O)N(CCCN)CC(=O)N(Cc2ccc3ccccc3c2)CC1=O [Compound 21, C(NapNnm)3] | >250 | >250 |  |  |
| 31.3 (≈ 29.9 µM) | 31.3 (≈ 29.9 µM) | 2 (≈ 1.91 µM) | NCCCN1CC(=O)N(Cc2ccccc2)CC(=O)N(CCCN)CC(=O)N(Cc2ccccc2)CC(=O)N(CCCN)CC(=O)N(Cc2ccccc2)CC(=O)N(CCCN)CC(=O)N(Cc2ccccc2)CC1=O [Compound 24, C(NapNpm)4] (cyclo([Nphe][Gly(N(CH2)3NH2)][Nphe][Gly(N(CH2)3NH2)][Nphe][Gly(N(CH2)3NH2)][Nphe][Gly(N(CH2)3NH2)])) | >250 | >250 | ≥ 250 |  |
| 31.3 (≈ 14.9 µM) | 62.5 (≈ 29.8 µM) | 62.5 (≈ 29.8 µM) | CC(=O)N(CCCCNC(=N)N)CC(=O)N(CC(=O)N(CCCCNC(=N)N)CC(=O)N(CC(=O)N(CCCCNC(=N)N)CC(=O)N(CC(=O)N(CCCCNC(=N)N)CC(=O)N(CC(=O)N(CCCCNC(=N)N)CC(=O)N(CC(N)=O)CC(c1ccccc1)c1ccccc1)CC(c1ccccc1)c1ccccc1)CC(c1ccccc1)c1ccccc1)CC(c1ccccc1)c1ccccc1)CC(c1ccccc1)c1ccccc1 [Compound 15, Ac(NgbNdp)5] | >250 | >250 |  |  |
| >500 | 500 (≈ 638 µM) | 500 (≈ 638 µM) | NCCCN1CC(=O)N(Cc2ccccc2)CC(=O)N(CCCN)CC(=O)N(Cc2ccccc2)CC(=O)N(CCCN)CC(=O)N(Cc2ccccc2)CC1=O [Compound 23, C(NapNpm)3] (cyclo([Nphe][Gly(N(CH2)3NH2)][Nphe][Gly(N(CH2)3NH2)][Nphe][Gly(N(CH2)3NH2)])) | >250 | >250 |  |  |
| 250 (≈ 303 µM) | 500 (≈ 605 µM) | 250 (≈ 303 µM) | NCCCCN1CC(=O)N(Cc2ccccc2)CC(=O)N(CCCCN)CC(=O)N(Cc2ccccc2)CC(=O)N(CCCCN)CC(=O)N(Cc2ccccc2)CC1=O [Compound 30, C(NabNpm)3] (cyclo([Nlys][Nphe][Nlys][Nphe][Nlys][Nphe])) | >250 | >250 |  |  |
| >500 | >500 | >500 | CC(=O)N(CCCCN)CC(=O)N(CC(=O)N(CCCCN)CC(=O)N(CC(=O)N(CCCCN)CC(=O)N(CC(N)=O)Cc1ccccc1)Cc1ccccc1)Cc1ccccc1 [Compound 14, Ac(NabNpm)3] (Ac-[Nlys][Nphe][Nlys][Nphe][Nlys][Nphe]-NH2) | >250 | >250 |  |  |
| >500 | >500 | >500 | N=C(N)NCCCCN1CC(=O)N(CC(c2ccccc2)c2ccccc2)CC(=O)N(CC(c2ccccc2)c2ccccc2)CC(=O)N(CC(c2ccccc2)c2ccccc2)CC(=O)N(CCCCNC(=N)N)CC(=O)N(CC(c2ccccc2)c2ccccc2)CC1=O [Compound 32, C(NdpNgb)2Ndp2] | >250 | >250 |  |  |
| 31.3 (≈ 21.8 µM) | 62.5 (≈ 43.6 µM) | 62.5 (≈ 43.6 µM) | CC(C)CN1CC(=O)N(CCCCNC(=N)N)CC(=O)N(C(C)C)CC(=O)N2CCC[C@H]2C(=O)N(CC(c2ccccc2)c2ccccc2)CC(=O)N(CC(C)C)CC(=O)N(CCCCNC(=N)N)CC(=O)N(C(C)C)CC(=O)N2CCC[C@H]2C(=O)N(CC(c2ccccc2)c2ccccc2)CC1=O [Compound 28, C(NdpNibNgbNipPro)2] (cyclo([Nleu][NhArg][N(iPr)Gly]P[X1][Nleu][NhArg][N(iPr)Gly]P[X1])) | >250 | >250 |  |  |
